molecular target: T1, B2 bradykinin receptor (Homo sapiens) (UniProt P30411); experiment: Tested for percent inhibition of binding affinity against Bradykinin receptor B2 at 10 uM concentration
T1 sequence (whole entry): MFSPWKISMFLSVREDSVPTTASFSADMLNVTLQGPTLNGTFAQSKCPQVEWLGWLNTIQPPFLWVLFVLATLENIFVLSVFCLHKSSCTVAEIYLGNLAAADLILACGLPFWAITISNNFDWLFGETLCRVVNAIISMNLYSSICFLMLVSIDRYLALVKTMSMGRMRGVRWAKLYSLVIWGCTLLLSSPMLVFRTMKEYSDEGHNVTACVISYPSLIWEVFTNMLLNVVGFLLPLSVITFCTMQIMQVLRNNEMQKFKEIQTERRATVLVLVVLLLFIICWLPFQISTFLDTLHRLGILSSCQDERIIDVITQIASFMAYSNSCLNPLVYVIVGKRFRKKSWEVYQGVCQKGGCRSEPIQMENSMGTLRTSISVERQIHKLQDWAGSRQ

Which inhibition does the source give for `CCCC[PH](CCCC)(CCCC)Cc1ccc(NC(=O)C2Cc3ccccc3CN2C(=O)[C@H](CCc2ccccc2)N/C(=N/C2CCCCC2)NC2CCCCC2)cc1` (single isomer, unassigned; diastereomer 2) here?
The inhibition was > 50%.

For `CCCC[PH](CCCC)(CCCC)Cc1ccc(NC(=O)C2Cc3ccccc3CN2C(=O)[C@@H](N)CCc2ccccc2)cc1` (single isomer, unassigned; diastereomer 2), which inhibition is on record?
Its inhibition is 26%.

How did the inhibition turn out when `CCCC[P+](CCCC)(CCCC)Cc1ccc(NC(=O)C2Cc3ccccc3CN2C(=O)CCCc2ccccc2)cc1` (stereo not drawn) was run?
The inhibition was > 50%.

How did the inhibition turn out when `CCCC[P+](CCCC)(CCCC)Cc1ccc(NC(=O)C2Cc3ccccc3CN2C(=O)CNC(=O)OC(C)(C)C)cc1` (stereo not drawn) was run?
The inhibition was 18%.

`CCCC[P+](CCCC)(CCCC)Cc1ccc(NC(=O)C2Cc3ccccc3CN2C(=O)C(CCc2ccccc2)NC(=O)OC(C)(C)C)cc1` (stereo not drawn) was tested. Which inhibition did it give?
Its inhibition is > 50%.

`CCCC[PH](CCCC)(CCCC)Cc1ccc(NC(=O)C2Cc3ccccc3CN2C(=O)CN/C(=N/C2CCCCC2)NC2CCCCC2)cc1` (stereo not drawn) was tested. Which inhibition did it give?
Its inhibition is 33%.

`CCCC[PH](CCCC)(CCCC)Cc1ccc(NC(=O)C2Cc3ccccc3CN2/C(=N/C2CCCCC2)NC2CCCCC2)cc1` (stereo not drawn) was tested. Which inhibition did it give?
The inhibition was 34%.

How did the inhibition turn out when `CCCC[PH](CCCC)(CCCC)Cc1ccc(NC(=O)C2Cc3ccccc3CN2C(=O)[C@@H](N)CCc2ccccc2)cc1` (single isomer, unassigned; diastereomer 1) was run?
The inhibition was 26%.

For `CCCC[PH](CCCC)(CCCC)Cc1ccc(NC(=O)C2Cc3ccccc3CN2C(=O)[C@H](CCc2ccccc2)N/C(=N/C2CCCCC2)NC2CCCCC2)cc1` (single isomer, unassigned; diastereomer 1), which inhibition is on record?
Its inhibition is > 50%.

How did the inhibition turn out when `CCCC[PH](CCCC)(CCCC)Cc1ccc(NC(=O)C2Cc3ccccc3CN2C(=O)CN)cc1` (stereo not drawn) was run?
Its inhibition is 36%.

For `O=C(Nc1ccc(CN/C(=N/C2CCCCC2)NC2CCCCC2)cc1)C1Cc2ccccc2CN1C(=O)CN/C(=N/C1CCCCC1)NC1CCCCC1` (stereo not drawn), which inhibition is on record?
Its inhibition is 12%.

molecular target: T2, B2 bradykinin receptor (Homo sapiens, UniProt P30411); experiment: Tested for binding affinity against human IMR-90 Bradykinin receptor B2
T2 sequence (P30411 whole entry): T1 sequence (whole entry)

With `CCCC[P+](CCCC)(CCCC)Cc1ccc(NC(=O)C2Cc3ccccc3CN2C(=O)CCCc2ccccc2)cc1` (stereo not drawn) as the compound, how does the Ki read?
Its Ki is 10 µM.

`CCCC[P+](CCCC)(CCCC)Cc1ccc(NC(=O)C2Cc3ccccc3CN2C(=O)C(CCc2ccccc2)NC(=O)OC(C)(C)C)cc1` (stereo not drawn) was tested. Which Ki did it give?
Its Ki is 8 µM.

— ChEMBL document CHEMBL1128132, “Ace inhibitors as a template for the design of bradykinin B2 receptor antagonists” (Bioorg Med Chem Lett, 1995)
